Target: Dihydrofolate reductase (Lacticaseibacillus casei, UniProt P00381)
Assay: Inhibitory activity against dihydrofolate reductase (DHFR) from Lactobacillus casei (expressed as log 1/Kiapp)

Chain of Dihydrofolate reductase (P00381 whole entry): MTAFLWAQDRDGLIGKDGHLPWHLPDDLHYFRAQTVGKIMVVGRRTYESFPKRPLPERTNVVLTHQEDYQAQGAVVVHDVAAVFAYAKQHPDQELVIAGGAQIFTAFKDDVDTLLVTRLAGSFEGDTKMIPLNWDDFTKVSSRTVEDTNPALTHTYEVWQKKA

Row | SMILES | Ki [nM]
1 | CCCCCCCOc1ccc(Cc2cnc(N)nc2N)cc1 [5-(4-Heptyloxy-benzyl)-pyrimidine-2,4-diamine] | 4370
2 | Nc1ncc(Cc2cccc(C(F)(F)F)c2)c(N)n1 | 692
3 | Nc1ncc(Cc2cc(CO)cc(CO)c2)c(N)n1 | 1860
4 | Nc1ncc(Cc2cc(O)cc(O)c2)c(N)n1 | 417000
5 | Nc1ncc(Cc2cccc(Br)c2)c(N)n1 | 589
6 | COc1ccc(Cc2cnc(N)nc2N)cc1C(F)(F)F | 50
7 | Nc1ncc(Cc2cccc(I)c2)c(N)n1 | 214
8 | COc1ccc(Cc2cnc(N)nc2N)cc1OC [Diaveridine] | 120
9 | COCCOc1cccc(Cc2cnc(N)nc2N)c1 | 759
10 | NC(=O)COc1cccc(Cc2cnc(N)nc2N)c1 | 1100
11 | COCc1cccc(Cc2cnc(N)nc2N)c1 | 2290
12 | Nc1ncc(Cc2cccc(F)c2)c(N)n1 | 4170
13 | COCCOc1ccc(Cc2cnc(N)nc2N)cc1OCCOC | 309
14 | CS(=O)(=O)Oc1cccc(Cc2cnc(N)nc2N)c1 | 1200
15 | CCCCOCc1cccc(Cc2cnc(N)nc2N)c1 | 3240
16 | COCCOc1c(OC)cc(Cc2cnc(N)nc2N)cc1OC [5-[3,5-Dimethoxy-4-(2-methoxy-ethoxy)-benzyl]-pyrimidine-2,4-diamine] | 550
17 | Nc1ncc(Cc2cccc(CO)c2)c(N)n1 | 2140

The remaining lines, values ahead:

Row | Ki [nM] | SMILES
18 | 6310 | Nc1ncc(Cc2ccccc2)c(N)n1
19 | 1000 | Nc1ncc(Cc2ccc([N+](=O)[O-])cc2)c(N)n1
20 | 891 | CC(=O)Nc1ccc(Cc2cnc(N)nc2N)cc1
21 | 1440 | Nc1ncc(Cc2ccc(O)c(O)c2)c(N)n1
22 | 891 | COCCOc1ccc(Cc2cnc(N)nc2N)cc1
23 | 646 | Nc1ncc(Cc2ccc(Cl)cc2)c(N)n1
24 | 1510 | Nc1ncc(Cc2cccc(O)c2)c(N)n1 [3-(2,4-Diamino-pyrimidin-5-ylmethyl)-phenol]
25 | 1860 | CCCCCCOc1ccc(Cc2cnc(N)nc2N)cc1
26 | 1480 | Cc1ccc(Cc2cnc(N)nc2N)cc1
27 | 1660 | Cc1cccc(Cc2cnc(N)nc2N)c1
28 | 501 | Nc1ncc(Cc2ccc(OC(F)(F)F)cc2)c(N)n1
29 | 676 | CN(C)c1ccc(Cc2cnc(N)nc2N)cc1
30 | 1000 | CC(=O)Nc1ccc(Cc2cnc(N)nc2N)cc1[N+](=O)[O-]
31 | 617 | Nc1ncc(Cc2ccc(Br)cc2)c(N)n1
32 | 427 | CCCCOc1ccc(Cc2cnc(N)nc2N)cc1
33 | 2140 | Nc1ncc(Cc2ccc(F)cc2)c(N)n1
34 | 1260 | Nc1ncc(Cc2cccc(Cl)c2)c(N)n1
35 | 3390 | Nc1ccc(Cc2cnc(N)nc2N)cc1
